Measurements published in ChEMBL document CHEMBL5696442, “Discovery of type II inhibitors of TGFβ-activated kinase 1 (TAK1) and mitogen-activated protein kinase kinase kinase kinase 2 (MAP4K2)” (J Med Chem, 2015).
The source made the active and inactive calls. The calls are words filed in the database; no cut-off is given here.

Experiments:
[1] = target: MAP/microtubule affinity-regulating kinase 3 (Homo sapiens) (UniProt P27448); assay: Inhibition of MARK3 Lys2 labeling site in human A-375 cells at 0.5 uM by KiNativ Profiling analysis relative to control; format: cell-based
[2] = system: Mast/stem cell growth factor receptor Kit (Homo sapiens), P10721 [V559D]; assay: Inhibition of KIT V559D mutant (unknown origin) at 1 uM by Ambit Kinomescan binding assay relative to control; values are per cent of control
[3] = target: Serine/threonine-protein kinase VRK2 (Homo sapiens) (UniProt Q86Y07); assay: Inhibition of VRK2 (unknown origin) at 1 uM by Ambit Kinomescan binding assay relative to control
[4] = target: Activin receptor type-2A (Homo sapiens) (UniProt P27037); assay: Inhibition of ACVR2A (unknown origin) at 10 uM by Ambit Kinomescan binding assay
[5] = target: Serine/threonine-protein kinase A-Raf (Homo sapiens) (UniProt P10398); assay: Inhibition of ARAF Lys2 labeling site in human A-375 cells at 0.05 uM by KiNativ Profiling analysis relative to control; format: cell-based
[6] = target: Insulin receptor-related protein (Homo sapiens) (UniProt P14616); assay: Inhibition of INSRR (unknown origin) at 10 uM by Ambit Kinomescan binding assay relative to control
[7] = target: T1, Dual specificity mitogen-activated protein kinase kinase 6 (Homo sapiens) (UniProt P52564); assay: Inhibition of MAP2K6 K1 labeling site in human Huh-7 cells at 10 uM by KiNativ Profiling analysis relative to control; format: cell-based
T1 sequence (whole entry): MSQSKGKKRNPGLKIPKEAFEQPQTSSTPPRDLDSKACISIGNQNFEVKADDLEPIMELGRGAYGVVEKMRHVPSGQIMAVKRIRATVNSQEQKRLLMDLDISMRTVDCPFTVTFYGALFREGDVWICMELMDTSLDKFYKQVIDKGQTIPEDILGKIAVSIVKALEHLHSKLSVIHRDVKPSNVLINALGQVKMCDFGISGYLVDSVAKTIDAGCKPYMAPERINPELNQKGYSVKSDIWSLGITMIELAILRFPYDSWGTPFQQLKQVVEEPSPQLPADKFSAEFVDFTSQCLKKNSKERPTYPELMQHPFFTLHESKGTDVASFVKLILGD

[8] = target: Calcium/calmodulin-dependent protein kinase type 1G (Homo sapiens) (UniProt Q96NX5); assay: Inhibition of CAMK1G (unknown origin) at 10 uM by Ambit Kinomescan binding assay relative to control
[9] = target: Mitogen-activated protein kinase kinase kinase kinase 4 (Homo sapiens, UniProt O95819); assay: Inhibition of ZC1/HGK Lys1 labeling site in human Huh-7 cell lysate at 1 uM by KiNativ Profiling analysis relative to control; format: subcellular
[10] = target: Serine/threonine-protein kinase 38 (Homo sapiens) (UniProt Q15208); assay: Inhibition of NDR1 Lys1 labeling site in human Huh-7 cell lysate at 1 uM by KiNativ Profiling analysis relative to control; format: subcellular
[11] = target: T2, Serine/threonine-protein kinase Nek1 (Homo sapiens) (UniProt Q96PY6); assay: Inhibition of NEK1 Lys2 labeling site in human Huh-7 cell lysate at 1 uM by KiNativ Profiling analysis relative to control; format: subcellular
T2 sequence (whole entry): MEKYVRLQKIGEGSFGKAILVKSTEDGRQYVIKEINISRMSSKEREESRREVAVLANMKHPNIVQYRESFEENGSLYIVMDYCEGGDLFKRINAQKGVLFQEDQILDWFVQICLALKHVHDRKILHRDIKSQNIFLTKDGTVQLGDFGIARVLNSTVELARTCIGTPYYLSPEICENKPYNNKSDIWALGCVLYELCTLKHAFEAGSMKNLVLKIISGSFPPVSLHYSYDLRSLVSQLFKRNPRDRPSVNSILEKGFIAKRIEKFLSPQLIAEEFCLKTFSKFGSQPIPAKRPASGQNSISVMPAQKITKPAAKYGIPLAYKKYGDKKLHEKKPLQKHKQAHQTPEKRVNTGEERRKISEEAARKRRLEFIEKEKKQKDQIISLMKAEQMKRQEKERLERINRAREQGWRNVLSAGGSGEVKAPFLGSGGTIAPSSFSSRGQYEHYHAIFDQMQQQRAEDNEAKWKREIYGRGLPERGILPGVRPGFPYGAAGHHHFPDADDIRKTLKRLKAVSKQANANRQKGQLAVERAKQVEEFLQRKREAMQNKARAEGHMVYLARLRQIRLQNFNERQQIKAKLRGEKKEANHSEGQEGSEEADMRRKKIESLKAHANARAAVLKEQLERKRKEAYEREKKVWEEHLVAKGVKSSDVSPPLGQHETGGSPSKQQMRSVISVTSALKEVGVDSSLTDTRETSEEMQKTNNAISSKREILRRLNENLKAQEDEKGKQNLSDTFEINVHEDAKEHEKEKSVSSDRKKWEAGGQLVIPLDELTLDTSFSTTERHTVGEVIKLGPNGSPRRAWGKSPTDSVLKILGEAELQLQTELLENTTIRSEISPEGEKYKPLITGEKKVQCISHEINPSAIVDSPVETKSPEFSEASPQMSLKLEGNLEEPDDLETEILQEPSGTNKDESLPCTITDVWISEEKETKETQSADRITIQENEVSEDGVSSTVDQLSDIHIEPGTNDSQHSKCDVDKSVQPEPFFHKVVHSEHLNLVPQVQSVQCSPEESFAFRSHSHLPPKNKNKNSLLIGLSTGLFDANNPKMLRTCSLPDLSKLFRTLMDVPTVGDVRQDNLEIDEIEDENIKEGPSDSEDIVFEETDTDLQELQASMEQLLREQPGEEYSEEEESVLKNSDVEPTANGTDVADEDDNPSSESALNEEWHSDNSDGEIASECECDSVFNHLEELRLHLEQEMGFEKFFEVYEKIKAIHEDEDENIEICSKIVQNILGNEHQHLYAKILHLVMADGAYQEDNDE

[12] = target: T3, Phosphatidylinositol 5-phosphate 4-kinase type-2 gamma (Homo sapiens) (UniProt Q8TBX8); assay: Inhibition of PIP4K2C ATP labeling site harbouring TLVIKEVSSEDIADMHSNLSNYHQYIVK in human Huh-7 cell lysate at 1 uM by KiNativ Profiling analysis relative to control; format: subcellular
T3 sequence (whole entry): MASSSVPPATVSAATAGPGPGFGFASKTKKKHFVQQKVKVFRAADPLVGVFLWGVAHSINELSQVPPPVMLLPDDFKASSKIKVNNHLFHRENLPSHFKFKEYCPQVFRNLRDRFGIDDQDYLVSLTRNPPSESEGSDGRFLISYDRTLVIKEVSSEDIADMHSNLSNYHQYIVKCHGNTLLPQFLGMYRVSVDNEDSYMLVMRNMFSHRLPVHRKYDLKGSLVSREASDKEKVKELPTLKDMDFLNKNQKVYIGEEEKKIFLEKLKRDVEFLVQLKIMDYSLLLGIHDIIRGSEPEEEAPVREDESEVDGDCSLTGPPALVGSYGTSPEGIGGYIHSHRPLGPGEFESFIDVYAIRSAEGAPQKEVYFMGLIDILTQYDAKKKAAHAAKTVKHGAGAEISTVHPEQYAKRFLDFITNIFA

Serine/threonine-protein kinase VRK2 (Homo sapiens), sequence (Q86Y07 whole entry): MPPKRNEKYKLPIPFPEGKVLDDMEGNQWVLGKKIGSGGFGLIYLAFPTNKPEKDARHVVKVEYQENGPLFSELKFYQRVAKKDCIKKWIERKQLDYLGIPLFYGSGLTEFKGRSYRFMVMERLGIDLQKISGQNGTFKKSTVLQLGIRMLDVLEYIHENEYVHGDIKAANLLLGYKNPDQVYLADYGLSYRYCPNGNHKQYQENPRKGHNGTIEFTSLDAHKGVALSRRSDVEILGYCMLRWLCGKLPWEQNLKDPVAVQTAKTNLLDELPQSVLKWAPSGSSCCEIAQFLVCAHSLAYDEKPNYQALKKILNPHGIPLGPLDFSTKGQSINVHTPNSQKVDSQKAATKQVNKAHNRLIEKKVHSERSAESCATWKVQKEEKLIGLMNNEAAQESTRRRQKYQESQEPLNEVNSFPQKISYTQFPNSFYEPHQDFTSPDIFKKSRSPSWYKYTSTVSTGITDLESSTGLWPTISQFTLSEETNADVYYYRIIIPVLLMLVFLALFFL
Mitogen-activated protein kinase kinase kinase kinase 4, sequence (O95819 2-1239 limits assumed): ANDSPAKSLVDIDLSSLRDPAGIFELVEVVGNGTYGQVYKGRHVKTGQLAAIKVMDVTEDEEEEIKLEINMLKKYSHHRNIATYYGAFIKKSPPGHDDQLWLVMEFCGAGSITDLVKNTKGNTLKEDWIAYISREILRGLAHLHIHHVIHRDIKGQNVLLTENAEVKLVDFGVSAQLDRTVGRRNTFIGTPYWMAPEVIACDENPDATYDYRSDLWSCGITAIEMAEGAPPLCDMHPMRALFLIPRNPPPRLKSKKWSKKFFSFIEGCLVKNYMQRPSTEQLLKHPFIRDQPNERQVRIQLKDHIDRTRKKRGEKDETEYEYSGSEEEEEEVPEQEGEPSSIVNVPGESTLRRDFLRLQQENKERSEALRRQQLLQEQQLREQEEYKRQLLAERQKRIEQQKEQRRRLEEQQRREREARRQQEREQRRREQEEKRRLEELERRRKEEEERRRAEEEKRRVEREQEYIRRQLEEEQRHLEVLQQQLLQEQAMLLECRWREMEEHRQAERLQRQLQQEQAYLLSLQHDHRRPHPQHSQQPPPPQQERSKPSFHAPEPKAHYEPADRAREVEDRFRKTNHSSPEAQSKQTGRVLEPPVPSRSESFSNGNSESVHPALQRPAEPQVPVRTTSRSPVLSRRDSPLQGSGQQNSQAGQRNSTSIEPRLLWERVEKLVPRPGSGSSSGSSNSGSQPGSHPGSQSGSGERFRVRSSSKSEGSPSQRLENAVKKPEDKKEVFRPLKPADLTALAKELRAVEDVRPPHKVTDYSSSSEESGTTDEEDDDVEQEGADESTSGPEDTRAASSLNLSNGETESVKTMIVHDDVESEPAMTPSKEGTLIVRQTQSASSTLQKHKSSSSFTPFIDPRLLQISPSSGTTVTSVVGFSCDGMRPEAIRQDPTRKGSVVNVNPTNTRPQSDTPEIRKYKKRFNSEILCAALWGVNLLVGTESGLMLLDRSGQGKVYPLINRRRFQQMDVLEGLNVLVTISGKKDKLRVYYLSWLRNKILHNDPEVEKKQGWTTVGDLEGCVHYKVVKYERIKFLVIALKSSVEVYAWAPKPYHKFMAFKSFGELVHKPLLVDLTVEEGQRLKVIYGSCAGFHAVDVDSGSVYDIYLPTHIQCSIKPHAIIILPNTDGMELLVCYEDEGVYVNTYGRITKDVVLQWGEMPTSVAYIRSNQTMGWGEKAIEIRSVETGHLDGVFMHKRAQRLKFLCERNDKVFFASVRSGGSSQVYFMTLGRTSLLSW
Serine/threonine-protein kinase A-Raf (Homo sapiens), sequence (P10398 whole entry): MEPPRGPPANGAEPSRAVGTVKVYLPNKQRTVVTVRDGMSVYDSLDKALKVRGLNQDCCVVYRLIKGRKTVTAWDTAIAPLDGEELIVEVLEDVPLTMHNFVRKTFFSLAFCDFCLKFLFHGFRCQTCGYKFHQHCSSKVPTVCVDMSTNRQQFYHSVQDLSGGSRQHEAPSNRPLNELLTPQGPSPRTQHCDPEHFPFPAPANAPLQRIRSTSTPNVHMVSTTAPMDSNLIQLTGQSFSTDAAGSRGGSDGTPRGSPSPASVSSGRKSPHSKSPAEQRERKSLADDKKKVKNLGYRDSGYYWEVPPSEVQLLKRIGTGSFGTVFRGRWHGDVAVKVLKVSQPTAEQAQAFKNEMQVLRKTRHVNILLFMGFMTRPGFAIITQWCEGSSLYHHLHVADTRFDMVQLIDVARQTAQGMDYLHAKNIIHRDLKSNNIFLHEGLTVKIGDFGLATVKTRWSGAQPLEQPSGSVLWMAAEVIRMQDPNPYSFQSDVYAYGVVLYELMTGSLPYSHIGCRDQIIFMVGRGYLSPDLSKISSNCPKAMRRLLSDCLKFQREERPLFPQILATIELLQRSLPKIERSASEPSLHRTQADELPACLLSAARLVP
Mast/stem cell growth factor receptor Kit (Homo sapiens), P10721 [V559D], sequence (P10721 whole entry V559D): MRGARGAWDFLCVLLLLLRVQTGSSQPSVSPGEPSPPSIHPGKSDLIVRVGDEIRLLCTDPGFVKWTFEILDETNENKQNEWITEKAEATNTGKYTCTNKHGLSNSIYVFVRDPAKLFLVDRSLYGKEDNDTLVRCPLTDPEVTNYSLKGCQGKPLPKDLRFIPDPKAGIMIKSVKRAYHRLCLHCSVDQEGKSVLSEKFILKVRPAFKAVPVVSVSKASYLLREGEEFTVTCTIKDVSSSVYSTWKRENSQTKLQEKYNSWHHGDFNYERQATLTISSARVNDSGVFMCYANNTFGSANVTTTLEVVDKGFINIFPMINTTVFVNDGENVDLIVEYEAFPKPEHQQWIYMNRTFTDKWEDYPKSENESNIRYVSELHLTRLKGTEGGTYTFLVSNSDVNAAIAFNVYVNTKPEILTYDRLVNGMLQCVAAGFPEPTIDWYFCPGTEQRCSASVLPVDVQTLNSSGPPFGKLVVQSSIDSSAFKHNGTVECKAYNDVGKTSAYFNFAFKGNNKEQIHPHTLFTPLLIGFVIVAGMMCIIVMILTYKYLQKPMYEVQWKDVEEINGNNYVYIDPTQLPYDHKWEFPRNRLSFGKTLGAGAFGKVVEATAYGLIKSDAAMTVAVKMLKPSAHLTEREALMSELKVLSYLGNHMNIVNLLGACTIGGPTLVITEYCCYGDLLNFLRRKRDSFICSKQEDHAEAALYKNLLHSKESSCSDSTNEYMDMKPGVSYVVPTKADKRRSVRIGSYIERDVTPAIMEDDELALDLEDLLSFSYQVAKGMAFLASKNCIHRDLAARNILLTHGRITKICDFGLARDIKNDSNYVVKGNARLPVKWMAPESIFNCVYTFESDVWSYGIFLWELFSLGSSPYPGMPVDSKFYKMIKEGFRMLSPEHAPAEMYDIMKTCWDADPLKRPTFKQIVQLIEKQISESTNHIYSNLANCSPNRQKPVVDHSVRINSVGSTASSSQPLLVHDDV
Activin receptor type-2A (Homo sapiens), sequence (P27037 whole entry): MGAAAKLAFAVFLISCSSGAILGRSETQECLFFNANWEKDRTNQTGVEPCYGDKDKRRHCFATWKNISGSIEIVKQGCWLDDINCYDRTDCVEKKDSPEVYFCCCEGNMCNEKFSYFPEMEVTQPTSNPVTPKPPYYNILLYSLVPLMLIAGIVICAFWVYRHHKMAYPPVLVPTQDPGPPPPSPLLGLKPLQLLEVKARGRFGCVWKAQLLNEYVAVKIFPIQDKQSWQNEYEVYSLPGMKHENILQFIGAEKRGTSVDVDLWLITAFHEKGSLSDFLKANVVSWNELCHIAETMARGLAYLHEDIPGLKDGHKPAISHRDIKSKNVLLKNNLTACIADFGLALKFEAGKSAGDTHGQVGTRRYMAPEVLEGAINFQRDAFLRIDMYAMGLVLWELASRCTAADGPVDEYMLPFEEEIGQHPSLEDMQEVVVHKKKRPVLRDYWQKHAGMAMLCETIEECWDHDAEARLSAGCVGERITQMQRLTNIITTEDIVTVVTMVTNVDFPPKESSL
Calcium/calmodulin-dependent protein kinase type 1G (Homo sapiens), sequence (Q96NX5 whole entry): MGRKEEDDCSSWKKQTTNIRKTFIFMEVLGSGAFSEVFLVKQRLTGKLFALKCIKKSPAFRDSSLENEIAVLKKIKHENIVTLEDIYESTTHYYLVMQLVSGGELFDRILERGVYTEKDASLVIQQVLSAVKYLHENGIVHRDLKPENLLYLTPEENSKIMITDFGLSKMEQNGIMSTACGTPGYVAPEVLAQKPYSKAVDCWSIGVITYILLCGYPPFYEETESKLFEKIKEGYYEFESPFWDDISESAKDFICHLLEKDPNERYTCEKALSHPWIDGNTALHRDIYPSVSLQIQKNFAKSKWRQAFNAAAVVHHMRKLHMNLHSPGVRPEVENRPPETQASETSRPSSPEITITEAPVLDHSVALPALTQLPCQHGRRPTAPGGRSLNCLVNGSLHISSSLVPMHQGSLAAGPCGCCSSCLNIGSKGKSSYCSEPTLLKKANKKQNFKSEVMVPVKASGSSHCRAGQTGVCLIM
Serine/threonine-protein kinase 38 (Homo sapiens), sequence (Q15208 2-465 limits assumed): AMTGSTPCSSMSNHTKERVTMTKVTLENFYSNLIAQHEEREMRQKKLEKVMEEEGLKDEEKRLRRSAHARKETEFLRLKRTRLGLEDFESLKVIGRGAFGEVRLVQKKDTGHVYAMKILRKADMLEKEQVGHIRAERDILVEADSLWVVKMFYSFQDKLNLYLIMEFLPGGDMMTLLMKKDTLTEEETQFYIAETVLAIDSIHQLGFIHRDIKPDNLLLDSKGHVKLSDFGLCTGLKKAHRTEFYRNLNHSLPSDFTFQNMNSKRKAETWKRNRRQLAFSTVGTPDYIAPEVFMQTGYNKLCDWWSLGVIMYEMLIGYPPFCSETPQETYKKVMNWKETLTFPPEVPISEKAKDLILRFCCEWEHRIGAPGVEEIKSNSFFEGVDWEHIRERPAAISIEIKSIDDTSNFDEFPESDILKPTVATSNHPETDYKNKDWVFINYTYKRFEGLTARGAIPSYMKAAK

Molecule CCN1CCN(Cc2ccc(NC(=O)c3ccc(C)c(/C=C/c4cnc5[nH]ccc5c4OC)c3)cc2C(F)(F)F)CC1 has an inhibition [1] of 9.1%, a residual activity [2] of 0.05% and an inhibition [3] of 100%.

With CCN1CCN(Cc2ccc(NC(=O)c3ccc(C)c(Oc4ccnc5[nH]ccc45)c3)cc2C(F)(F)F)CC1 the inhibition [4] was “inactive”, the inhibition [5] was 39.3% and the inhibition [6] was 23%. The inhibition [7] was 5.5% and the inhibition [8] was 20%.

Work on CNc1cc(Oc2cc(C(=O)Nc3cc(N4CCN(C)CC4)cc(C(F)(F)F)c3)ccc2C)ncn1 yielded an inhibition [9] of 0.3%, an inhibition [10] of 9.5% and an inhibition [11] of -1.1%. It also gave an inhibition [12] of -3.6%.
